tested on: YAP-TEAD; test: YAP-TEAD inhibitor activity by Nano luciferase method (8xGTiiC-nLuc reporter in 293T cells); format: cell-based; conditions: Homo sapiens, HEK-293T, 48 hours incubation, read-out: Nano-luciferase detection (IC50)
In short: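 293T cells transiently transfected with pGL3B-8xGTiiC-nLuc-CMV-fLuc, seeded 2000 cells/well, then treated 48 h at 37 °C with compounds in 1:3.16 dilution series (top 10,000 nM). Nano luciferase signal read after cell lysis; IC50 from percent of 0 nM control.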

IC50, ≤ 1000 nM:
CNS(=O)(=O)c1ccc2c(c1)c1cn(C)nc1c(=O)n2-c1ccc(C(F)(F)F)cc1 [Example T-32]
C[C@H](NC(=O)c1ccc2c(c1)c1nn(C)cc1c(=O)n2-c1ccc(C(F)(F)F)cc1)c1ccccn1 [Example T-105]
C[C@H](NC(=O)c1ccc2c(c1)c1cnccc1c(=O)n2-c1ccc(C(F)(F)F)cc1)c1ccccn1 [Example T-253]
C[C@H](NC(=O)c1ccc2c(c1)c1ccccc1c(=O)n2-c1ccc(C(F)(F)F)cc1)c1ccccn1 [Example T-272]
Cc1cc(=O)n(-c2ccc(C(F)(F)F)cc2)c2ccc(C(=O)N[C@@H](C)c3ccccn3)cc12 [Example T-277]

From US20250154105A1, “POLYCYCLIC COMPOUND AND USE THEREOF” (TYK MEDICINES, INC., priority 2021, published 2025)
